The test concerns the target Substance-P receptor (Homo sapiens, UniProt P25103). As to the kind of experiment: In vitro binding affinity against substance P (NK-1) receptor in human IM-9 cell using [125I]BH-SP. Format: cell-based.

Sequence of Substance-P receptor (P25103 whole entry): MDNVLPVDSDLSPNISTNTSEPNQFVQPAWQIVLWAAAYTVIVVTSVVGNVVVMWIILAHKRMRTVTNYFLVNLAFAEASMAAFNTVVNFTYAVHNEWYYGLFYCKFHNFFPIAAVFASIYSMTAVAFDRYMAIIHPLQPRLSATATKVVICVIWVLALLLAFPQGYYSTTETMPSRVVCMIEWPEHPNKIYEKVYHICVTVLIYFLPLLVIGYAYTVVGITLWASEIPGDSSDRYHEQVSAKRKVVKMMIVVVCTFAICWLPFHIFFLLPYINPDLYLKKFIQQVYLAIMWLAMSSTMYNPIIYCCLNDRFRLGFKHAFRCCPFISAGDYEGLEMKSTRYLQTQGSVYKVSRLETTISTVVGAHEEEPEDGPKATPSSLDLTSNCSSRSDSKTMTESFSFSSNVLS

As for `COc1ccccc1[C@@H]1CC[C@@]2(CCCN[C@H]2c2ccccc2)NC1`, the affinity, expressed as Ki, was 2 nM. For `COc1ccccc1[C@@H]1CC[C@@]2(CCCN[C@H]2c2ccccc2)N1`, the Ki – broadly, a measure of affinity in units of concentration, obtained from inhibition or displacement – was above 10000 nM.
